Structures are written as SMILES. Values after ≈ are worked out from the molar mass of the structure shown.

The test system of one test is MTB H37Rv. Kind of test: Bacteriostasis experiment: MIC in 96-well plate, two-fold dilution method. The class given is cell-based, Mycobacterium tuberculosis. The following applies: MTB H37Rv (ATCC 27294), 7H9 medium, 37° C., about 10 days.
On to `CCCSc1nc2c(c(=O)[nH]1)C(c1ccc3occc3c1)CC(=O)N2` (stereo not shown) [LSL-11-17, 2-propylmercapto-5-(benzofuran-5-yl)-5,6-dihydropyrido[2,3-d]pyrimidin-4,7(3H,8H)-dione], for which the “Inhibitory activity against Mycobacterium tuberculosis, MIC, MTB H37Rv” value stood at 4 µg/mL.

Staying with this test, now noted: MTB H37Rv, statement on Table 1 data.
With `CCCSc1nc2c(c(=O)[nH]1)C(c1ccc(OC)cc1[N+](=O)[O-])CC(=O)N2` (stereo not shown) [LSL-9-41, 2-propylmercapto-5-(4-methoxy-2-nitrophenyl)-5,6-dihydropyrido[2,3-d]pyrimidin-4,7(3H,8H)-dione], the “anti-mycobacterium tuberculosis MIC compared with the positive control drug INH” value is recorded as “equivalent to that of the positive control drug INH”. The same measure, in the same setting: under `CCCSc1nc2c(c(=O)[nH]1)C(c1ccc(OCC)cc1)CC(=O)N2` (stereo not shown) [LSL-9-39, 2-propylmercapto-5-(4-ethoxyphenyl)-5,6-dihydropyrido[2,3-d]pyrimidin-4,7(3H,8H)-dione] stands “equivalent to that of the positive control drug INH”; under `CCCSc1nc2nccc(-c3ccc4ncccc4c3)c2c(=O)[nH]1` [LSL-11-08, 2-propylmercapto-5-(quinolin-6-yl)-pyrido[2,3-d]pyrimidin-4(3H)-one], “equivalent to that of the positive control drug INH”; under `CCCSc1nc2c(c(=O)[nH]1)C(c1ccc3ncccc3c1)CC(=O)N2` (stereo not shown) [LSL-9-36, 2-propylmercapto-5-(quinolin-6-yl)-5,6-dihydropyrido[2,3-d]pyrimidin-4,7(3H,8H)-dione], “equivalent to that of the positive control drug INH”.

The same test, now with this note: Mycobacterium tuberculosis, ATCC 27294 / H37Rv, 240 h, MTB H37Rv (ATCC 27294), 7H9 medium, 37° C., about 10 days; read-out: Inhibitory activity against Mycobacterium tuberculosis, MIC, MTB H37Rv.
`CCCSc1nc2c(c(=O)[nH]1)C(c1ccc(C(F)(F)F)cc1)CC(=O)N2` (stereo not shown) [LSL-9-38, 2-propylmercapto-5-(4-trifluoromethylphenyl)-5,6-dihydropyrido[2,3-d]pyrimidin-4,7(3H,8H)-dione]: the minimal inhibitory concentration (MIC) turned out to be 16 µg/mL (≈ 41.7 µM). Same read-out and setting: under `CCCSc1nc2c(c(=O)[nH]1)C(c1ccc(OCC(C)C)cc1)CC(=O)N2` (stereo not shown) [LSL-11-27, 2-propylmercapto-5-(4-isobutoxyphenyl)-5,6-dihydropyrido[2,3-d]pyrimidin-4,7(3H,8H)-dione] stands 1 µg/mL (≈ 2.58 µM); under `CCCSc1nc2c(c(=O)[nH]1)C(c1ccc(OC)cc1[N+](=O)[O-])CC(=O)N2` (stereo not shown) [LSL-9-41, 2-propylmercapto-5-(4-methoxy-2-nitrophenyl)-5,6-dihydropyrido[2,3-d]pyrimidin-4,7(3H,8H)-dione], 0.125 µg/mL (≈ 0.32 µM).

For `CCCSc1nc2c(c(=O)[nH]1)C(c1ccc([N+](=O)[O-])cc1)CC(=O)N2` (stereo not shown) [LSL-7-50, 2-propylmercapto-5-(4-nitrophenyl)-5,6-dihydropyrido[2,3-d]pyrimidin-4,7(3H,8H)-dione], the MIC is 64 µg/mL (≈ 178 µM). For the molecule `CCCSc1nc2c(c(=O)[nH]1)C(c1ccc(OCC)cc1)CC(=O)N2` (stereo not shown) [LSL-9-39, 2-propylmercapto-5-(4-ethoxyphenyl)-5,6-dihydropyrido[2,3-d]pyrimidin-4,7(3H,8H)-dione], the MIC worked out at 0.5 µg/mL (≈ 1.39 µM).

Consider `CCCSc1nc2c(c(=O)[nH]1)C(c1ccc(C(=O)O)cc1)CC(=O)N2` (stereo not shown) [LSL-11-24, 2-propylmercapto-5-(4-carboxyphenyl)-5,6-dihydropyrido[2,3-d]pyrimidin-4,7(3H,8H)-dione], for which the MIC was 2 µg/mL (≈ 5.56 µM). The same measure, in the same setting: under `CCCSc1nc2c(c(=O)[nH]1)C(c1ccc3c(c1)CCO3)CC(=O)N2` (stereo not shown) [LSL-11-33, 2-propylmercapto-5-(2,3-dihydrobenzofuran-5-yl)-5,6-dihydropyrido[2,3-d]pyrimidin-4,7(3H,8H)-dione] stands 2 µg/mL (≈ 5.6 µM). Same read-out and setting: under `CCCSc1nc2c(c(=O)[nH]1)C(c1ccc(OC(F)(F)F)cc1)CC(=O)N2` (stereo not shown) [LSL-9-35, 2-propylmercapto-5-(4-trifluoromethoxyphenyl)-5,6-dihydropyrido[2,3-d]pyrimidin-4,7(3H,8H)-dione] stands 64 µg/mL (≈ 160 µM); under `CCCSc1nc2c(c(=O)[nH]1)C(c1ccc(OC)c(O)c1)CC(=O)N2` (stereo not shown) [LSL-7-38, 2-propylmercapto-5-(3-hydroxy-4-methoxyphenyl)-5,6-dihydropyrido[2,3-d]pyrimidin-4,7(3H,8H)-dione], 1 µg/mL (≈ 2.77 µM). On the same count and under the same terms, then `CCCSc1nc2c(c(=O)[nH]1)C(c1cc(OC)c(OC)c(OC)c1)CC(=O)N2` (stereo not shown) [LSL-7-44, 2-propylmercapto-5-(3,4,5-trimethoxyphenyl)-5,6-dihydropyrido[2,3-d]pyrimidin-4,7(3H,8H)-dione], with 16 µg/mL (≈ 39.5 µM); and `CCCSc1nc2c(c(=O)[nH]1)C(c1ccc(N3CCOCC3)cc1)CC(=O)N2` (stereo not shown) [LSL-10-43, 2-propylmercapto-5-(4-morpholinophenyl)-5,6-dihydropyrido[2,3-d]pyrimidin-4,7(3H,8H)-dione], with 1 µg/mL (≈ 2.5 µM); and `CCCSc1nc2c(c(=O)[nH]1)C(c1ccccc1OC)CC(=O)N2` (stereo not shown) [LSL-9-48, 2-propylmercapto-5-(2-methoxyphenyl)-5,6-dihydropyrido[2,3-d]pyrimidin-4,7(3H,8H)-dione], with 16 µg/mL (≈ 46.3 µM). `CCCSc1nc2nccc(-c3ccc4ncccc4c3)c2c(=O)[nH]1` [LSL-11-08, 2-propylmercapto-5-(quinolin-6-yl)-pyrido[2,3-d]pyrimidin-4(3H)-one]: the MIC worked out at 0.25 µg/mL (≈ 0.718 µM). Still for that read-out and setting: then `CCCOc1ccc(C2CC(=O)Nc3nc(SCCC)[nH]c(=O)c32)cc1O` (stereo not shown) [LSL-9-25, 2-propylmercapto-5-(3-hydroxy-4-propoxyphenyl)-5,6-dihydropyrido[2,3-d]pyrimidin-4,7(3H,8H)-dione], with 4 µg/mL (≈ 10.3 µM). On the same count and under the same terms, under `CCCSc1nc2c(c(=O)[nH]1)C(C1CCCC1)CC(=O)N2` (stereo not shown) [LSL-11-31, 2-propylmercapto-5-cyclopentyl-5,6-dihydropyrido[2,3-d]pyrimidin-4,7(3H,8H)-dione] stands 16 µg/mL (≈ 52 µM). Turning to `CCCSc1nc2c(c(=O)[nH]1)C(c1ccc3ncccc3c1)CC(=O)N2` (stereo not shown) [LSL-9-36, 2-propylmercapto-5-(quinolin-6-yl)-5,6-dihydropyrido[2,3-d]pyrimidin-4,7(3H,8H)-dione], the MIC was 0.125 µg/mL (≈ 0.341 µM). Still for that read-out and setting: then `CCCSc1nc2c(c(=O)[nH]1)C(c1ccc(O)c(O)c1)CC(=O)N2` (stereo not shown) [LSL-7-42, 2-propylmercapto-5-(3,4-dihydroxyphenyl)-5,6-dihydropyrido[2,3-d]pyrimidin-4,7(3H,8H)-dione], with 32 µg/mL (≈ 92.1 µM); and `CCCSc1nc2c(c(=O)[nH]1)C(c1cccc(O)c1)CC(=O)N2` (stereo not shown) [LSL-9-49, 2-propylmercapto-5-(3-hydroxyphenyl)-5,6-dihydropyrido[2,3-d]pyrimidin-4,7(3H,8H)-dione], with 16 µg/mL (≈ 48.3 µM); and `CCCSc1nc2c(c(=O)[nH]1)C(c1ccncc1)CC(=O)N2` (stereo not shown) [LSL-11-29, 2-propylmercapto-5-(pyridin-4-yl)-5,6-dihydropyrido[2,3-d]pyrimidin-4,7(3H,8H)-dione], with 8 µg/mL (≈ 25.3 µM). On the same count and under the same terms, then `CCCSc1nc2c(c(=O)[nH]1)C(c1ccc(Br)c([N+](=O)[O-])c1)CC(=O)N2` (stereo not shown) [LSL-11-22, 2-propylmercapto-5-(3-nitro-4-bromophenyl)-5,6-dihydropyrido[2,3-d]pyrimidin-4,7(3H,8H)-dione], with 1 µg/mL (≈ 2.28 µM).

As to `CCCSc1nc2c(c(=O)[nH]1)C(c1ccc(S(C)(=O)=O)cc1)CC(=O)N2` (stereo not shown) [LSL-11-20, 2-propylmercapto-5-(4-methanesulfonylphenyl)-5,6-dihydropyrido[2,3-d]pyrimidin-4,7(3H,8H)-dione], the MIC stood at 1 µg/mL (≈ 2.54 µM).

As for `CCCSc1nc2c(c(=O)[nH]1)C(c1ccc(Sc3ccccc3)cc1)CC(=O)N2` (stereo not shown) [LSL-11-19, 2-propylmercapto-5-(4-phenylthiophenyl)-5,6-dihydropyrido[2,3-d]pyrimidin-4,7(3H,8H)-dione], the MIC came out at 8 µg/mL (≈ 18.9 µM). Same read-out and setting: then `CCCSc1nc2c(c(=O)[nH]1)C(c1cccc(OC)c1)CC(=O)N2` (stereo not shown) [LSL-9-47, 2-propylmercapto-5-(3-methoxyphenyl)-5,6-dihydropyrido[2,3-d]pyrimidin-4,7(3H,8H)-dione], with 4 µg/mL (≈ 11.6 µM); and `CCCSc1nc2c(c(=O)[nH]1)C(c1ccnc3ccccc13)CC(=O)N2` (stereo not shown) [LSL-10-06, 2-propylmercapto-5-(quinolin-4-yl)-5,6-dihydropyrido[2,3-d]pyrimidin-4,7(3H,8H)-dione], with 4 µg/mL (≈ 10.9 µM); and `COc1cc(C2CC(=O)Nc3nc(SC)[nH]c(=O)c32)cc(OC)c1OC` (stereo not shown) [LSL-7-43, 2-methylmercapto-5-(3,4,5-trimethoxyphenyl)-5,6-dihydropyrido[2,3-d]pyrimidin-4,7(3H,8H)-dione], with > 64 µg/mL. On the same count and under the same terms, under `CCCSc1nc2c(c(=O)[nH]1)C(c1cccc(C#N)c1)CC(=O)N2` (stereo not shown) [LSL-10-02, 2-propylmercapto-5-(3-cyanophenyl)-5,6-dihydropyrido[2,3-d]pyrimidin-4,7(3H,8H)-dione] stands 6 µg/mL (≈ 17.6 µM); under `CCCOc1ccc(C2CC(=O)Nc3nc(SC)[nH]c(=O)c32)cc1` (stereo not shown) [LSL-7-36, 2-methylmercapto-5-(4-propoxyphenyl)-5,6-dihydropyrido[2,3-d]pyrimidin-4,7(3H,8H)-dione], 32 µg/mL (≈ 92.6 µM); under `C=CCSc1nc2c(c(=O)[nH]1)C(c1ccc(OC)c(OC)c1)CC(=O)N2` (stereo not shown) [LSL-9-17, 2-allylmercapto-5-(3,4-dimethoxyphenyl)-5,6-dihydropyrido[2,3-d]pyrimidin-4,7(3H,8H)-dione], 8 µg/mL (≈ 21.4 µM). Consider `CCCSc1nc2c(c(=O)[nH]1)C(c1ccc(N3CCCCC3)cc1)CC(=O)N2` (stereo not shown) [LSL-10-48, 2-propylmercapto-5-(4-(piperidin-1-yl)phenyl)-5,6-dihydropyrido[2,3-d]pyrimidin-4,7(3H,8H)-dione], for which the MIC was 2 µg/mL (≈ 5.02 µM). For the molecule `CCCSc1nc2c(c(=O)[nH]1)C(c1ccc(Br)cc1)CC(=O)N2` (stereo not shown) [LSL-9-26, 2-propylmercapto-5-(4-bromophenyl)-5,6-dihydropyrido[2,3-d]pyrimidin-4,7(3H,8H)-dione], the MIC came out at 2 µg/mL (≈ 5.07 µM). The same measure, in the same setting: then `C=CCSc1nc2c(c(=O)[nH]1)C(c1ccc(OC)c(O)c1)CC(=O)N2` (stereo not shown) [LSL-9-15, 2-allylmercapto-5-(3-hydroxy-4-methoxyphenyl)-5,6-dihydropyrido[2,3-d]pyrimidin-4,7(3H,8H)-dione], with 2 µg/mL (≈ 5.56 µM). `CCCSc1nc2c(c(=O)[nH]1)C(c1ccc(N)cc1)CC(=O)N2` (stereo not shown) [LSL-9-44, 2-propylmercapto-5-(4-aminophenyl)-5,6-dihydropyrido[2,3-d]pyrimidin-4,7(3H,8H)-dione]: the MIC is 16 µg/mL (≈ 48.4 µM).

Regarding `CCCSc1nc2c(c(=O)[nH]1)C(c1ccc(F)cc1)CC(=O)N2` (stereo not shown) [LSL-9-27, 2-propylmercapto-5-(4-fluorophenyl)-5,6-dihydropyrido[2,3-d]pyrimidin-4,7(3H,8H)-dione], the MIC is > 64 µg/mL.

Regarding `CCCSc1nc2c(c(=O)[nH]1)C(c1cc(O)c(O)c(O)c1)CC(=O)N2` (stereo not shown) [LSL-9-33, 2-propylmercapto-5-(3,4,5-trihydroxyphenyl)-5,6-dihydropyrido[2,3-d]pyrimidin-4,7(3H,8H)-dione], the minimal inhibitory concentration (MIC) is 64 µg/mL (≈ 176 µM). On the same count and under the same terms, then `CCCSc1nc2c(c(=O)[nH]1)C(c1ccc(C#N)cc1)CC(=O)N2` (stereo not shown) [LSL-10-01, 2-propylmercapto-5-(4-cyanophenyl)-5,6-dihydropyrido[2,3-d]pyrimidin-4,7(3H,8H)-dione], with 16 µg/mL (≈ 47 µM).

Broadly, the MIC is the lowest concentration that inhibits growth of the organism.

For the origin of these results see US20230303561A1, “PYRIMIDINONE DERIVATIVE, PREPARATION METHOD THEREOF AND USE THEREOF IN RESISTING MYCOBACTERIUM TUBERCULOSIS INFECTION” (INSTITUTE OF MEDICINAL BIOTECHNOLOGY, CHINESE ACADEMY OF …, priority 2020, published 2023).
